Source: PubChem BioAssay (NCI)
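Dose response: 5 concentrations. Exposure: 48 h. Format: 96-well plates. Endpoint: linear interpolation; highest concentration if not reached. GI50 marks 50% less growth. Definition used: TGI = concentration required for complete inhibition of growth.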

Columns and labels:
Test in all cases: growth of human tumour cells (NCI), 48 h
786-0 renal = tested on: 786-0 renal
A549 NSCLC = tested on: A549 NSCLC
ACHN renal = tested on: ACHN renal
BT-549 breast = tested on: BT-549 breast
CAKI-1 renal = tested on: CAKI-1 renal
CCRF-CEM leukemia = tested on: CCRF-CEM leukemia
COLO 205 colon = tested on: COLO 205 colon
DU-145 prostate = tested on: DU-145 prostate
EKVX NSCLC = tested on: EKVX NSCLC
HCC-2998 colon = tested on: HCC-2998 colon
HCT-116 colon = tested on: HCT-116 colon
HCT-15 colon = tested on: HCT-15 colon
HOP-62 NSCLC = tested on: HOP-62 NSCLC
HOP-92 NSCLC = tested on: HOP-92 NSCLC
HS 578T breast = tested on: HS 578T breast
HT29 colon = tested on: HT29 colon
IGROV1 ovarian = tested on: IGROV1 ovarian
K-562 leukemia = tested on: K-562 leukemia
KM12 colon = tested on: KM12 colon
LOX IMVI melanoma = tested on: LOX IMVI melanoma
M14 melanoma = tested on: M14 melanoma
MALME-3M melanoma = tested on: MALME-3M melanoma
MCF7 breast = tested on: MCF7 breast
MDA-MB-231 breast = tested on: MDA-MB-231 breast
MDA-MB-435 = tested on: MDA-MB-435
MOLT-4 leukemia = tested on: MOLT-4 leukemia
NCI-H226 lung = tested on: NCI-H226 lung
NCI-H23 lung = tested on: NCI-H23 lung
NCI-H460 lung = tested on: NCI-H460 lung
NCI-H522 lung = tested on: NCI-H522 lung
NCI/ADR-RES ovarian = tested on: NCI/ADR-RES ovarian
OVCAR-3 ovarian = tested on: OVCAR-3 ovarian
OVCAR-4 ovarian = tested on: OVCAR-4 ovarian
OVCAR-5 ovarian = tested on: OVCAR-5 ovarian
OVCAR-8 ovarian = tested on: OVCAR-8 ovarian
PC-3 prostate = tested on: PC-3 prostate
RPMI-8226 leukemia = tested on: RPMI-8226 leukemia
RXF 393 renal = tested on: RXF 393 renal
SF-268 CNS = tested on: SF-268 CNS
SF-295 CNS = tested on: SF-295 CNS
SF-539 CNS = tested on: SF-539 CNS
SK-MEL-2 melanoma = tested on: SK-MEL-2 melanoma
SK-MEL-28 melanoma = tested on: SK-MEL-28 melanoma
SK-MEL-5 melanoma = tested on: SK-MEL-5 melanoma
SK-OV-3 ovarian = tested on: SK-OV-3 ovarian
SN12C renal = tested on: SN12C renal
SNB-19 CNS = tested on: SNB-19 CNS
SR leukemia = tested on: SR leukemia
SW-620 colon = tested on: SW-620 colon
T-47D breast = tested on: T-47D breast
TK-10 renal = tested on: TK-10 renal
U251 CNS = tested on: U251 CNS
UACC-257 melanoma = tested on: UACC-257 melanoma
UACC-62 melanoma = tested on: UACC-62 melanoma
UO-31 renal = tested on: UO-31 renal

Cn1c(Cc2ccccc2)nc2cc3ccccc3cc21
GI50 (786-0 renal): 26 µM | TGI (786-0 renal): 65.1 µM | GI50 (A549 NSCLC): 31.8 µM | TGI (A549 NSCLC): > 100 µM | GI50 (ACHN renal): 31.7 µM | TGI (ACHN renal): > 100 µM | GI50 (BT-549 breast): 21.2 µM | TGI (BT-549 breast): 45.3 µM | GI50 (CAKI-1 renal): 35.5 µM | TGI (CAKI-1 renal): > 100 µM | GI50 (CCRF-CEM leukemia): 15 µM | TGI (CCRF-CEM leukemia): 37.6 µM | GI50 (COLO 205 colon): 37 µM | TGI (COLO 205 colon): > 100 µM | GI50 (DU-145 prostate): 26.4 µM | TGI (DU-145 prostate): 66.7 µM | GI50 (EKVX NSCLC): 22.2 µM | TGI (EKVX NSCLC): 52.5 µM | GI50 (HCC-2998 colon): 22.8 µM | TGI (HCC-2998 colon): 49.9 µM | GI50 (HCT-116 colon): 21 µM | TGI (HCT-116 colon): 42.2 µM | GI50 (HCT-15 colon): 26.8 µM | TGI (HCT-15 colon): > 100 µM | GI50 (HOP-62 NSCLC): 38.3 µM | TGI (HOP-62 NSCLC): > 100 µM | GI50 (HOP-92 NSCLC): 10.7 µM | TGI (HOP-92 NSCLC): 34.6 µM | GI50 (HS 578T breast): 22.2 µM | TGI (HS 578T breast): 57.7 µM | GI50 (HT29 colon): 43.3 µM | TGI (HT29 colon): > 100 µM | GI50 (IGROV1 ovarian): 25.5 µM | TGI (IGROV1 ovarian): > 100 µM | GI50 (K-562 leukemia): 37.4 µM | TGI (K-562 leukemia): > 100 µM | GI50 (KM12 colon): 23.9 µM | TGI (KM12 colon): > 100 µM | GI50 (LOX IMVI melanoma): 24 µM | TGI (LOX IMVI melanoma): 64.7 µM | GI50 (M14 melanoma): 26.4 µM | TGI (M14 melanoma): 64.3 µM | GI50 (MALME-3M melanoma): 20.7 µM | TGI (MALME-3M melanoma): 50.6 µM | GI50 (MCF7 breast): 38 µM | TGI (MCF7 breast): > 100 µM | GI50 (MDA-MB-231 breast): 16 µM | TGI (MDA-MB-231 breast): 37.5 µM | GI50 (MDA-MB-435): 25.2 µM | TGI (MDA-MB-435): 80 µM | GI50 (MOLT-4 leukemia): 32.6 µM | TGI (MOLT-4 leukemia): > 100 µM | GI50 (NCI-H226 lung): 22.7 µM | TGI (NCI-H226 lung): 56.8 µM | GI50 (NCI-H23 lung): 43 µM | TGI (NCI-H23 lung): > 100 µM | GI50 (NCI-H460 lung): 27.6 µM | TGI (NCI-H460 lung): > 100 µM | GI50 (NCI-H522 lung): 34.5 µM | TGI (NCI-H522 lung): > 100 µM | GI50 (NCI/ADR-RES ovarian): 24.8 µM | TGI (NCI/ADR-RES ovarian): 68.7 µM | GI50 (OVCAR-3 ovarian): 36.4 µM | TGI (OVCAR-3 ovarian): > 100 µM | GI50 (OVCAR-4 ovarian): 70.4 µM | TGI (OVCAR-4 ovarian): > 100 µM | GI50 (OVCAR-5 ovarian): 42.5 µM | TGI (OVCAR-5 ovarian): > 100 µM | GI50 (OVCAR-8 ovarian): 24.6 µM | TGI (OVCAR-8 ovarian): 63.2 µM | GI50 (PC-3 prostate): 18.8 µM | TGI (PC-3 prostate): 59.6 µM | GI50 (RPMI-8226 leukemia): 13.1 µM | TGI (RPMI-8226 leukemia): 34.3 µM | GI50 (RXF 393 renal): 35.6 µM | TGI (RXF 393 renal): > 100 µM | GI50 (SF-268 CNS): 34.7 µM | TGI (SF-268 CNS): > 100 µM | GI50 (SF-295 CNS): 25.5 µM | TGI (SF-295 CNS): 75.6 µM | GI50 (SF-539 CNS): 20.6 µM | TGI (SF-539 CNS): 37.4 µM | GI50 (SK-MEL-2 melanoma): 40.7 µM | TGI (SK-MEL-2 melanoma): > 100 µM | GI50 (SK-MEL-28 melanoma): 37.9 µM | TGI (SK-MEL-28 melanoma): > 100 µM | GI50 (SK-MEL-5 melanoma): 14.8 µM | TGI (SK-MEL-5 melanoma): 29.1 µM | GI50 (SK-OV-3 ovarian): 49.6 µM | TGI (SK-OV-3 ovarian): > 100 µM | GI50 (SN12C renal): 18.7 µM | TGI (SN12C renal): 39.1 µM | GI50 (SNB-19 CNS): 39.3 µM | TGI (SNB-19 CNS): > 100 µM | GI50 (SR leukemia): 18.1 µM | TGI (SR leukemia): 48.1 µM | GI50 (SW-620 colon): 17.2 µM | TGI (SW-620 colon): 38.3 µM | GI50 (T-47D breast): 44.9 µM | TGI (T-47D breast): > 100 µM | GI50 (TK-10 renal): 47.9 µM | TGI (TK-10 renal): > 100 µM | GI50 (U251 CNS): 28.2 µM | TGI (U251 CNS): > 100 µM | GI50 (UACC-257 melanoma): 26.8 µM | TGI (UACC-257 melanoma): 61.9 µM | GI50 (UACC-62 melanoma): 19.6 µM | TGI (UACC-62 melanoma): 43.5 µM | GI50 (UO-31 renal): 25.7 µM | TGI (UO-31 renal): > 100 µM
